Laboratory results: US10022360B2, “Polymeric nanoparticles and methods of making and using same” (priority 2014, dated 2018)

Key:
[1] = assay type: in vivo; conditions: BT-474 xenografts in SCID mice, FIG. 15
in vivo = conditions: mouse
Protocol: NPs from Example 4 were prepared on a larger scale for MTD studies.

[2] = Blood glucose after acute treatment, non-tumor bearing SCID mice; assay type: in vivo; conditions: FIG. 10

## NC1(c2ccc(-c3nc4ccn5c(=O)[nH]nc5c4cc3-c3ccccc3)cc2)CCC1 [COMPOUND A, 8-[4-(1-amino-cyclobutyl)phenyl]-9-phenyl-2H-[1,2,4]-triazolo-[3,4-f][1,6]-naphthyridin-3-one]
[1]
  MTD dosing / toxicity (percent survival): exhibited toxicity
In vivo
  MTD: 480 mg/kg
[2]
  hyperglycemia following acute treatment: display hyperglycemia
